The record followed here is PubChem BioAssay AID179 (DTP/NCI, 2004).

In the assay the test system is CEM cells HIV-1 protection, formazan growth assay. Nature of the assay: NCI AIDS Antiviral Assay. As to conditions: for IC50: measured here: growth of uninfected CEM cells. The method, boiled down: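 Protection of CEM cells against HIV-1 was scored from cell growth (soluble formazan) across five concentrations, with parallel uninfected cells. Lack of protection may reflect toxicity.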

Calls of active or inactive are those of the source.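 The calls were made as follows: active = compounds giving half or more protection of infected cells from virus-caused growth loss, again on retest; inactive = the rest.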 Where a SMILES comes first, the peptide text is derived from it. [ ]: non-standard residue; d: D form. Abu = CC[CH](N)C(=O)O

The term EC50 denotes the concentration at which the effect is half-maximal. One may read the IC50 as the concentration needed to halve the response being measured. A lower IC50 goes with inhibition by little substance. With `COC(=O)C1OC(OC2=C(c3ccc(OC)cc3)C(=O)C(OC3OC(C(=O)OC)C(OC(C)=O)C(OC(C)=O)C3OC(C)=O)=C(c3ccc(OC)cc3)C2=O)C(OC(C)=O)C(OC(C)=O)C1OC(C)=O` (stereo not given), the EC50 is over 28.8 µM and the IC50 was 4.57 µM.

Regarding `Cc1cc(NS(=O)(=O)c2ccc(NC(=O)c3ccc(Cl)c4c(Nc5ccc(S(=O)(=O)N=C(N)N)cc5)c5ccccc5nc34)cc2)no1`, the EC50 was over 51.3 µM and the 50% inhibitory concentration (IC50) was over 51.3 µM. Turning to `CCC(N)C(=O)NC(C(=O)NC(CC(C)C)C(=O)NC(CC(N)=O)C(=O)NC(Cc1ccccc1)C(=O)O)C(C)O` (stereo not given) (H-[Abu]TLNF-OH; configuration not given here), the outcome was inactive. For the molecule `CCn1c(=O)c(N=O)c(N)n(CCCO)c1=O`, the EC50 was over 200 µM and the IC50 was over 200 µM. As for `COC(=O)CC[C@@H](C)C1CCC2[C@@H]3CC[C@@H]4CC(COS(=O)(=O)c5ccc(C)cc5)CC[C@]4(C)C3CC[C@@]21C` (stereo not given in full), the EC50 was over 8.32 µM and the IC50 is over 8.32 µM. On to `COC(=O)/C(=N\NC(=S)NN)C(C(=O)OC)C(=O)C(=O)Nc1cccc(C(F)(F)F)c1` (stereo not given), for which the EC50 was over 537 µM and the half-maximal inhibitory concentration (IC50) was 240 µM. On the same counts, the results for `COC1=CC(=O)[C@H]2[C@H](C)C(c3ccccc3)[C@@]2(C)C1=O` (stereo not given in full) are over 933 µM and 603 µM.

Consider `CCCCNC(=O)CNC(=O)c1ccccc1SC(=O)CCCC[n+]1ccccc1`, for which the EC50 is over 200 µM and the IC50 came to 9.33 µM. On the same counts, the results for `CN(C)P(=O)(/C(N)=N/Nc1ccc([N+](=O)[O-])cc1)N(C)C` are over 158 µM and 155 µM. For `COC(=O)C(=O)C(C(=O)C=C(C)C)C(=O)C(=O)Nc1ccc(Cl)cc1C` (stereo not given), the outcome was inactive. As for `CC1NC(=O)COC1c1ccccc1` (stereo not given), the EC50 is over 200 µM and the IC50 is over 200 µM. For the molecule `CC(=O)OCC1OC(n2cnc3nc(Br)[nH]c(=O)c32)C(OC(C)=O)C1OC(C)=O` (stereo not given), the concentration for a half-maximal effect (EC50) is 61.7 µM and the 50% inhibitory concentration (IC50) is over 200 µM. For `Cc1ccc(-c2cc(-c3ccccc3)[s+]c3ccc(C)cc23)cc1`, in that order: over 200 µM and 6.03 µM.

For `S=C1NC2=C(CSC/C2=C\c2ccccc2)C(c2ccccc2)N1` (stereo not given), the EC50 is over 200 µM and the IC50 was found to be 37.2 µM. `CN(C)c1ccc(C=Cc2ccc([N+](=O)[O-])cc2)cc1.[C-]#[O+].[C-]#[O+].[C-]#[O+].[Cr]`: the EC50 was over 20 µM and the IC50 turned out to be 2.4 µM. On the same counts, the results for `CCc1cc(=O)n(/C(C)=C/c2ccccc2)n1C` are over 200 µM and over 200 µM. On the same counts, the results for `CC1(n2nc(-c3ccccc3)n(-c3ccccc3)c2=O)CSC1` are over 41.7 µM and over 41.7 µM.

On to `CCOC(=O)NN(C(=O)OCC)c1c(C)cc(C)cc1C`, for which the EC50 was over 200 µM and the IC50 is over 200 µM. Regarding `Nc1nc2c(ncn2C2OC(CO)(C(F)(F)F)C(O)C2O)c(=O)[nH]1` (stereo not given), the EC50 was over 200 µM and the IC50 was over 200 µM. As for `COc1ccc(N2C(=O)/C(=C\c3cc(OC)c(OC)c(OC)c3)S(=O)(=O)C2c2ccccc2)cc1` (stereo not given), the EC50 is over 200 µM and the 50% inhibitory concentration (IC50) was 41.7 µM. On the same counts, the results for `CC1C(=O)C(C)C(c2cccs2)N(N=O)C1c1cccs1` (stereo not given) are over 58.9 µM and 37.2 µM. For `COc1cccc(C2ON=C(c3ccccc3)N2C23CC4CC(CC(C4)C2)C3)c1` (stereo not given), in that order: over 200 µM and 58.9 µM.

With `C[C@H]1C(=O)O[C@@H]1[C@H]1COC(C)(C)O1`, the EC50 is over 200 µM and the concentration for half-maximal inhibition (IC50) is over 200 µM. In the case of `NCCC=C(c1cc(Cl)c(O)c(C(=O)O)c1)c1cc(Cl)c(O)c(C(=O)O)c1`, the 50% effective concentration (EC50) was 151 µM and the IC50 was over 200 µM. Turning to `Cc1noc(NC(=O)Nc2ccccc2C(F)(F)F)c1C`, the EC50 is over 200 µM and the half-maximal inhibitory concentration (IC50) is over 200 µM. Turning to `COc1ccc(OC)c(/C=C/NC=O)c1`, the EC50 was over 200 µM and the IC50 was over 200 µM.
